# Values quoted from earlier work as cited in PubChem BioAssay AID1259409 (Chemical Carcinogenesis Research Information System (CCRIS), 2018).
# System: rodent chemically induced tumor inhibition, incidence and multiplicity
# Assay: CCRIS tumor inhibitor studies
# Details: Route [Inhibitor]: ORAL; for tumour outcome (control, treated, inhibition, significance): Promoter: NONE USED
structure (smiles),measurement,setting,value
O=[Se](O)O,"tumour outcome (control, treated, inhibition, significance)","Carcinogen: AZOXYMETHANE, 25843-45-2, Dose [Inhibitor]: 2.5 PPM IN DIET BEGINNING 1 WK POST CARCINOGEN DOSE FOR DURATION OF STUDY (STUDY DURATION: 39 WK), Species: RAT, Strain/Sex: F344/MALE, Target Tissue: Type of Lesion: DUODENUM: ADENOCARCINOMA, Dose [Carcinogen]: 15 MG/KG BW 1/WK FOR 2 WK","7/27 (26%), 8/27 (30%), -15%, not significant"
same,"tumour outcome (control, treated, inhibition, significance)","Carcinogen: AZOXYMETHANE, 25843-45-2, Dose [Inhibitor]: 2.5 PPM IN DIET BEGINNING 1 WK POST CARCINOGEN DOSE FOR DURATION OF STUDY (STUDY DURATION: 39 WK), Species: RAT, Strain/Sex: F344/MALE, Target Tissue: Type of Lesion: DUODENUM: ADENOMA, Dose [Carcinogen]: 15 MG/KG BW 1/WK FOR 2 WK","3/27 (11%), 5/27 (19%), -73%, not significant"
same,"tumour outcome (control, treated, inhibition, significance)","Carcinogen: AZOXYMETHANE, 25843-45-2, Dose [Inhibitor]: 2.5 PPM IN DIET BEGINNING 3 WK PRIOR TO CARCINOGEN DOSE AND CONTINUING FOR 1 WK POST CARCINOGEN DOSE (STUDY DURATION: 39, Species: RAT, Strain/Sex: F344/MALE, Target Tissue: Type of Lesion: COLON: ADENOCARCINOMA, Dose [Carcinogen]: 15 MG/KG BW 1/WK FOR 2 WK","10/27 (37%), 9/27 (33%), 11%, not significant"
same,"tumour outcome (control, treated, inhibition, significance)","Carcinogen: AZOXYMETHANE, 25843-45-2, Dose [Inhibitor]: 2.5 PPM IN DIET BEGINNING 3 WK PRIOR TO CARCINOGEN DOSE AND CONTINUING FOR 1 WK POST CARCINOGEN DOSE (STUDY DURATION: 39, Species: RAT, Strain/Sex: F344/MALE, Target Tissue: Type of Lesion: COLON: ADENOMA, Dose [Carcinogen]: 15 MG/KG BW 1/WK FOR 2 WK","16/27 (59%), 13/27 (48%), 19%, not significant"
same,"tumour outcome (control, treated, inhibition, significance)","Carcinogen: AZOXYMETHANE, 25843-45-2, Dose [Inhibitor]: 2.5 PPM IN DIET BEGINNING 3 WK PRIOR TO CARCINOGEN DOSE AND CONTINUING FOR 1 WK POST CARCINOGEN DOSE (STUDY DURATION: 39, Species: RAT, Strain/Sex: F344/MALE, Target Tissue: Type of Lesion: DUODENUM: ADENOCARCINOMA, Dose [Carcinogen]: 15 MG/KG BW 1/WK FOR 2 WK","7/27 (26%), 13/27 (48%), -85%, not significant"
same,"tumour outcome (control, treated, inhibition, significance)","Carcinogen: AZOXYMETHANE, 25843-45-2, Dose [Inhibitor]: 2.5 PPM IN DIET BEGINNING 3 WK PRIOR TO CARCINOGEN DOSE AND CONTINUING FOR 1 WK POST CARCINOGEN DOSE (STUDY DURATION: 39, Species: RAT, Strain/Sex: F344/MALE, Target Tissue: Type of Lesion: DUODENUM: ADENOMA, Dose [Carcinogen]: 15 MG/KG BW 1/WK FOR 2 WK","3/27 (11%), 6/27 (22%), -100%, not significant"
same,"tumour outcome (control, treated, inhibition, significance)","Carcinogen: AZOXYMETHANE, 25843-45-2, Dose [Inhibitor]: O.5 PPM IN DIET BEGINNING 3 WK PRIOR TO CARCINOGEN DOSE AND CONTINUING FOR 1 WK POST CARCINOGEN DOSE (STUDY DURATION: 39, Species: RAT, Strain/Sex: F344/MALE, Target Tissue: Type of Lesion: COLON: ADENOCARCINOMA, Dose [Carcinogen]: 15 MG/KG BW 1/WK FOR 2 WK","10/27 (37%), 8/27 (30%), 19%, not significant"
same,"tumour outcome (control, treated, inhibition, significance)","Carcinogen: BENZO[A]PYRENE, 50-32-8, Dose [Inhibitor]: 4 PPM IN DRINKING WATER DAILY FOR 12 MO STARTING 12 MO BEFORE CARCINOGEN TREATMENT (STUDY DURATION: 67 WK), Species: MOUSE, Strain/Sex: BALB/MALE, Target Tissue: Type of Lesion: INJECTION SITE: SARCOMA, Dose [Carcinogen]: 4 UG/G BW ONCE","31/50 (62%), 14/50 (28%), 55%"
same,outcome,"Carcinogen: DIETHYLNITROSAMINE [55-18-5], Dose [Inhibitor]: 5 PPM IN DRINKING WATER, 3 WK AFTER PARTIAL HEPATECTOMY TO END AT 12 MO (STUDY DURATION: 12 MO), DRINKING WATER, Species: RAT, Strain/Sex: F344, Target Tissue: Type of Lesion: LIVER: TUMOR DENSITY, Dose [Carcinogen]: 200 MG/KG BW ONCE, Promoter: 2-ACETYLAMINOFLUORENE [53-96-3]","26, 14, 46.2%, p=0.01"
same,"tumour outcome (control, treated, inhibition, significance)","Carcinogen: DIETHYLNITROSAMINE, 55-18-5, Dose [Inhibitor]: 0, 1 MG/L IN DRINKING WATER FOR DURATION OF STUDY BEGINNING 7 D PRIOR TO FIRST CARCINOGEN DOSE (STUDY DURATION: 6 MO), Species: RAT, Strain/Sex: BD6/FEMALE, Target Tissue: Type of Lesion: ESOPHAGUS: TUMOR, Dose [Carcinogen]: 80 MG/KG BW 1/WK FOR 8 WK","30%, 0%, 100%, p<0.05"
same,"tumour outcome (control, treated, inhibition, significance)","Carcinogen: DIETHYLNITROSAMINE, 55-18-5, Dose [Inhibitor]: 0, 5 MG/L IN DRINKING WATER FOR DURATION OF STUDY BEGINNING 7 D PRIOR TO CARCINOGEN TREATMENT (STUDY DURATION: 6 MO), Species: RAT, Strain/Sex: BD6/FEMALE, Target Tissue: Type of Lesion: ESOPHAGUS: TUMOR, Dose [Carcinogen]: 80 MG/KG BW 1/WK FOR 9 WK","50%, 51%, -2%, not significant"
same,"tumour outcome (control, treated, inhibition, significance)","Carcinogen: DIETHYLNITROSAMINE, 55-18-5, Dose [Inhibitor]: 0, 5 MG/L IN DRINKING WATER FOR DURATION OF STUDY BEGINNING 7 D PRIOR TO CARCINOGEN TREATMENT (STUDY DURATION: 6 MO), Species: RAT, Strain/Sex: BD6/FEMALE, Target Tissue: Type of Lesion: LIVER: TUMOR, Dose [Carcinogen]: 80 MG/KG BW 1/WK FOR 9 WK","100%, 95%, 5%, not significant"
same,"tumour outcome (control, treated, inhibition, significance)","Carcinogen: DIETHYLNITROSAMINE, 55-18-5, Dose [Inhibitor]: 0, 5 MG/L IN DRINKING WATER FOR DURATION OF STUDY BEGINNING 7 D PRIOR TO FIRST CARCINOGEN DOSE (STUDY DURATION: 6 MO), Species: RAT, Strain/Sex: BD6/FEMALE, Target Tissue: Type of Lesion: ESOPHAGUS: TUMOR, Dose [Carcinogen]: 80 MG/KG BW 1/WK FOR 8 WK","31%, 50%, -61%, not significant"
same,"tumour outcome (control, treated, inhibition, significance)","Carcinogen: DIETHYLNITROSAMINE, 55-18-5, Dose [Inhibitor]: 0, 5 MG/L IN DRINKING WATER FOR DURATION OF STUDY BEGINNING 7 D PRIOR TO FIRST CARCINOGEN DOSE (STUDY DURATION: 6 MO), Species: RAT, Strain/Sex: BD6/FEMALE, Target Tissue: Type of Lesion: LIVER: TUMOR, Dose [Carcinogen]: 80 MG/KG BW 1/WK FOR 8 WK","94%, 94%, 0%, not significant"
same,"tumour outcome (control, treated, inhibition, significance)","Carcinogen: DIETHYLNITROSAMINE, 55-18-5, Dose [Inhibitor]: 0, 10 MG/L IN DRINKING WATER FOR DURATION OF STUDY BEGINNING 4 D POST CARCINOGEN TREATMENT (STUDY DURATION: 6 M0), Species: RAT, Strain/Sex: BD6/FEMALE, Target Tissue: Type of Lesion: LIVER: TUMOR, Dose [Carcinogen]: 80 MG/KG BW 1/WK FOR 9 WK","100%, 96%, 4%, not significant"
